Assay results: publication PMC2963311 (Nature neuroscience, 2008)
Where no end group is shown, it is not given here.

System: EGL-6
Assay: GIRK current activation in EGL-6-expressing oocytes
Format: cell-based, C. elegans
Details: single synthetic peptide; X. laevis oocytes coexpressing EGL-6 and GIRKs; whole-cell currents, two-electrode voltage clamp, −80 mV, high-K+ medium (96 mM KCl); Fig. 4d

Row | Substance | agonist activity when applied individually
1 | KSAFVRF-NH2 | could function as agonists when applied individually
2 | KSQYIRF-NH2 | could function as agonists when applied individually
3 | QPKARSGYIRF-NH2 | could function as agonists when applied individually
